Biological target: T1, GAT-1 (Homo sapiens, UniProt P30531)
T1 construct: expressed in transfected cells; host or cells: SH-SY5Y (human neuroblastoma cell line), transient transfection with Lipofectamine 3000
Experiment: Tritiated [3H]GABA uptake assay in transfected SH-SY5Y cells
Assay type: cell-based
Settings: CI-966 100 μM in 0.8% DMSO, 10 min at 37° C.
Text: SH-SY5Y cells (human neuroblastoma cell line) were transfected with the constructs as described in Example 1 using Lipofectamine 3000 and following manufacturer instructions. The positive control consisted of a plasmid encoding hSLC6A1 under the control of a CAG promoter expressed together with a tagRFP fluorescent protein whilst as negative control (and a matching plasmid lacking the hSLC6A1 sequence. At 2 days post transfection, SH-SY5Y cells were attested for either ICC analysis of GABA uptake assay. Briefly, ICC analysis was performed as follow: cells were fixed with 4% paraformaldehyde and stained with the primary antibodies rabbit monoclonal anti-GAT-1 (Ref: ab177483; Abcam™, Cambridge, MA, USA) at 1:250. Cells were then stained with goat anti-rabbit secondary antibodies conjugated to Alexa Fluor 488 at 1:1,000 prior to imaging. For the GABA uptake assay, cells were previously seeded on scintillating microplates. […] Cells were then treated with a mixture of tritiated and cold GABA ([3H]GABA 8 μCi/ml and 15 μM GABA final concentrations) for 10 min at 37° C. and the reaction was stopped using 1 mM cold GABA before quantification of the radioactivity with a Microbeta instrument (Perkin Elmer).

T1 sequence (P30531 whole entry): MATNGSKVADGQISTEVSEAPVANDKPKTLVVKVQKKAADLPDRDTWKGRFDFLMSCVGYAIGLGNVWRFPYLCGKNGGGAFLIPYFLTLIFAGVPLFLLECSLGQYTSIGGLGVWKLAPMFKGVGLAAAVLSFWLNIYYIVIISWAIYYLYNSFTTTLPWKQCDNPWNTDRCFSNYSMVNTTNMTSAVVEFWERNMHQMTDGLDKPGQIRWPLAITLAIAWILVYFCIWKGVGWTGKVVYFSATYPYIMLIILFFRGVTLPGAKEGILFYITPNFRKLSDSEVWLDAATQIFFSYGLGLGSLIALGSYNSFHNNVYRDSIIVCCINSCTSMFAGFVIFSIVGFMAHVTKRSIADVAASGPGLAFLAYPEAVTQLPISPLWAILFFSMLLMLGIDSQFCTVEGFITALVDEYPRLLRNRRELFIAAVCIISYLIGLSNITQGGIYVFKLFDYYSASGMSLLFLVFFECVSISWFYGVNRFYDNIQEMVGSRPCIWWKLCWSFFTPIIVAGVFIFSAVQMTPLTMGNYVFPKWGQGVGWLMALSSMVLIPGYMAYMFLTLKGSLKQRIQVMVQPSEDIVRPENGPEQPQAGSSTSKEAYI

With `O=C(O)C1=CCCN(CCOC(c2ccc(C(F)(F)F)cc2)c2ccc(C(F)(F)F)cc2)C1` [GAT-1 inhibitor] the “uptake of [3H]GABA when cells treated with inhibitor” value was “inhibited”.

Source: patent US20230365652A1, “Nucleic Acid Constructs, Viral Vectors and Viral Particles” (priority 2020, published 2023)
